Values after ≈ are worked out from the molar mass of the structure shown. Where two headings read alike, the source gives them in different places.
What was measured:
[1] = system: Mycobacterium tuberculosis H37Rv; test: Mycobacterium tuberculosis H37Rv Inhibition Assay (Whole Cell Assay); type: cell-based; details: ATCC 25618 / H37Rv, H37Rv strain (ATCC25618), Middlebrook 7H9, six days at 37° C., resazurin fluorescence after 48 hours
[2] = target: T1, Mycobacterium tuberculosis InhA (Mycobacterium tuberculosis, UniProt P9WGR1); test: Mycobacterium tuberculosis InhA Inhibition Assay (Enzyme Assay); type: biochemical; details: 5 nM InhA, 50 μM DDCoA, 50 μM NADH, PIPES buffer pH 6.8, initial velocities of NADH consumption
T1 construct: made in house; host or cells: E. coli
T1 sequence (P9WGR1 whole entry, looked up): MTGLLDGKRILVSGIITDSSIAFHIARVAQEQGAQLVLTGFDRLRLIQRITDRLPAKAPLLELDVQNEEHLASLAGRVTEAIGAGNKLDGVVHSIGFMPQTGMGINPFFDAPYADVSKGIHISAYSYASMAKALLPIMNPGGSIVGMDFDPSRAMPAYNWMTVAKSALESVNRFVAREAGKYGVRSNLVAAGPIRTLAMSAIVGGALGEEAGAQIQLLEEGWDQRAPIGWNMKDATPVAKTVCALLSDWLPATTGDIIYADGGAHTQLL
Experimental: Mycobacterium tuberculosis InhA Inhibition Assay (Enzyme Assay)
InhA is able to reduce 2-trans enoyl-CoA esters with concomitant oxidation of NADH to NAD^+. The assay format is based on the kinetic detection of NADH consumption.
Assay for InhA inhibition is carried out with mycobacterium recombinant protein expressed and purified form E. coli. Standard assay conditions for the determination of kinetic constants and inhibitors activity use 5 nM of InhA, 50 μM of Dodecenoyl-CoA synthesized and purified as described by Quernard et al (DDCoA) and 50 μM of NADH as substrates, and it is carried out in 30 mM PIPES buffer pH 6.8, containing 0.05% of BSA. […] Triclosan is used as positive control in every experiment. One μl of compounds is added to the wells containing 25 μl of the DDCoA+NADH mix, the reaction is started by adding 50 μl of the enzyme solution. Fluorescence from NADH is followed at room temperature during 20 minutes in a fluorescent plate reader (excitation at 340 nm; emission at 480 nm). IC50 values are determined using initial velocities of NADH consumption.
Quernard A, Sacchettini J C, Dessen A, et al. Enzymatic characterization of the target for isoniazid in Mycobacterium tuberculosis. Biochemistry 1995; 34:8235-41.

| SMILES | MIC [1] [µM] | IC50 ([2]; IC50 value) [nM] | IC50 ([2]; read-out: IC50 value) [nM] |
| --- | --- | --- | --- |
| Cc1cc(C)n(C(C)c2nnc(Nc3ccn(Cc4ccc(Cl)cc4)n3)s2)n1 (stereo not drawn) [Example 34, N-{1-[(4-chlorophenyl)methyl]-1H-pyrazol-3-yl}-5-[1-(3,5-dimethyl-1H-pyrazol-1-yl)ethyl]-1,3,4-thiadiazol-2-amine] | 4 to 10 (≈ 1.66 to 4.14 µg/mL) | 121 to 242 |  |
| Cc1cc(C)n(C(C)c2nnc(Nc3cc(C)n(Cc4c(F)cccc4Cl)n3)s2)n1 (stereo not drawn) [Example 19, N-{1-[(2-chloro-6-fluorophenyl)methyl]-5-methyl-1H-pyrazol-3-yl}-5-[1-(3,5-dimethyl-1H-pyrazol-1-yl)ethyl]-1,3,4-thiadiazol-2-amine] | 1 to 4 (≈ 0.446 to 1.78 µg/mL) |  | < 112 |
| Cc1ccn(C(C)c2nnc(Nc3ccn(Cc4c(F)cccc4Cl)n3)s2)n1 (racemic) [Example 38, N-{1-[(2-chloro-6-fluorophenyl)methyl]-1H-pyrazol-3-yl}-5-[1-(3-methyl-1H-pyrazol-1-yl)ethyl]-1,3,4-thiadiazol-2-amine] | ≤ 1 |  | < 120 |
| Cc1csc(Cc2nnc(Nc3ccn(Cc4c(F)cccc4Cl)n3)s2)n1 [Example 32, N-{1-[(2-chloro-6-fluorophenyl)methyl]-1H-pyrazol-3-yl}-5-[(4-methyl-1,3-thiazol-2-yl)methyl]-1,3,4-thiadiazol-2-amine] | 4 to 10 (≈ 1.68 to 4.21 µg/mL) |  | < 119 |
| Cc1cc(C)n(C(C)c2nnc(Nc3ccn(Cc4c(F)ccc(N)c4F)n3)s2)n1 (stereo not drawn) [Example 87, N-{1-[(3-amino-2,6-difluorophenyl)methyl]-1H-pyrazol-3-yl}-5-[1-(3,5-dimethyl-1H-pyrazol-1-yl)ethyl]-1,3,4-thiadiazol-2-amine] | 1 to 4 (≈ 0.43 to 1.72 µg/mL) | < 116 |  |
| Cc1ccn(C(C)c2nnc(Nc3ccn(Cc4cc(Cl)ccc4Cl)n3)s2)n1 (stereo not drawn) [Example 4, N-{1-[(2,5-dichlorophenyl)methyl]-1H-pyrazol-3-yl}-5-[1-(3-methyl-1H-pyrazol-1-yl)ethyl]-1,3,4-thiadiazol-2-amine] | 4 to 10 (≈ 1.74 to 4.34 µg/mL) |  | < 115 |
| Cc1ccn(Cc2nnc(Nc3ccn(Cc4ccccc4)n3)s2)n1 [Example 60, 5-[(3-methyl-1H-pyrazol-1-yl)methyl]-N-[1-(phenylmethyl)-1H-pyrazol-3-yl]-1,3,4-thiadiazol-2-amine] | > 10 |  | 285 to 1420 |
| Cc1csc(C(C)(O)c2nnc(Nc3ccn(Cc4cccc(F)c4F)n3)s2)n1 (stereo not drawn) [Example 80, 1-[5-({1-[(2,3-difluorophenyl)methyl]-1H-pyrazol-3-yl}amino)-1,3,4-thiadiazol-2-yl]-1-(4-methyl-1,3-thiazol-2-yl)ethanol] | ≤ 1 | < 115 |  |
| Cc1cc(C)n(C(C)c2nnc(Nc3ccn(Cc4cc(C(F)(F)F)ccc4Cl)n3)s2)n1 (stereo not drawn) [Example 11, N-(1-{[2-chloro-5-(trifluoromethyl)phenyl]methyl}-1H-pyrazol-3-yl)-5-[1-(3,5-dimethyl-1H-pyrazol-1-yl)ethyl]-1,3,4-thiadiazol-2-amine] | > 10 |  | < 104 |
| Cc1cc(C)n(C(C)c2nnc(Nc3ccn(Cc4ccccc4C(F)(F)F)n3)s2)n1 (stereo not drawn) [Example 1, 5-[1-(3,5-dimethyl-1H-pyrazol-1-yl)ethyl]-N-(1-{[2-(trifluoromethyl)phenyl]methyl}-1H-pyrazol-3-yl)-1,3,4-thiadiazol-2-amine] | 4 to 10 (≈ 1.79 to 4.47 µg/mL) |  | < 112 |
| Cc1cc(C)n(C(C)c2nnc(Nc3ccn(Cc4cccc(C)c4F)n3)s2)n1 (stereo not drawn) [Example 24, 5-[1-(3,5-dimethyl-1H-pyrazol-1-yl)ethyl]-N-{1-[(2-fluoro-3-methylphenyl)methyl]-1H-pyrazol-3-yl}-1,3,4-thiadiazol-2-amine] | ≤ 1 |  | < 122 |
| COC(C)(c1nc(C)cs1)c1nnc(Nc2ccn(Cc3c(F)cccc3Cl)n2)s1 (stereo not drawn) [Example 72, N-{1-[(2-chloro-6-fluorophenyl)methyl]-1H-pyrazol-3-yl}-5-[1-(methyloxy)-1-(4-methyl-1,3-thiazol-2-yl)ethyl]-1,3,4-thiadiazol-2-amine] | 1 to 4 (≈ 0.465 to 1.86 µg/mL) |  | < 108 |
| Cc1cc(C)n(Cc2nnc(Nc3ccn(Cc4c(Cl)cccc4Cl)n3)s2)n1 [Example 53, N-{1-[(2,6-dichlorophenyl)methyl]-1H-pyrazol-3-yl}-5-[(3,5-dimethyl-1H-pyrazol-1-yl)methyl]-1,3,4-thiadiazol-2-amine] | > 10 |  | < 115 |
| Cc1csc(C(C)c2nnc(Nc3ccn(Cc4c(F)ccc(C)c4F)n3)s2)n1 (stereo not drawn) [Example 85, N-{1-[(2,6-difluoro-3-methylphenyl)methyl]-1H-pyrazol-3-yl}-5-[1-(4-methyl-1,3-thiazol-2-yl)ethyl]-1,3,4-thiadiazol-2-amine] | 1 to 4 (≈ 0.433 to 1.73 µg/mL) | < 116 |  |
| O=[N+]([O-])c1ccn(Cc2nnc(Nc3ccn(Cc4c(Cl)cccc4Cl)n3)s2)n1 [Example 47, N-{1-[(2,6-dichlorophenyl)methyl]-1H-pyrazol-3-yl}-5-[(3-nitro-1H-pyrazol-1-yl)methyl]-1,3,4-thiadiazol-2-amine] | > 10 | < 111 |  |
| COC(c1nc(C)cs1)c1nnc(Nc2ccn(Cc3c(F)cccc3F)n2)s1 (stereo not drawn) [Example 73, N-{1-[(2,6-difluorophenyl)methyl]-1H-pyrazol-3-yl}-5-[(methyloxy)(4-methyl-1,3-thiazol-2-yl)methyl]-1,3,4-thiadiazol-2-amine] | > 10 | 115 to 230 |  |
| Cc1csc(C(C)(O)c2nnc(Nc3ccn(Cc4cccc(C)c4F)n3)s2)n1 (stereo not drawn) [Example 83, 1-[5-({1-[(2-fluoro-3-methylphenyl)methyl]-1H-pyrazol-3-yl}amino)-1,3,4-thiadiazol-2-yl]-1-(4-methyl-1,3-thiazol-2-yl)ethanol] | ≤ 1 | < 116 |  |
| Cc1cc(C)n(C(C)c2nnc(Nc3ccn(Cc4ccc(F)cc4Cl)n3)s2)n1 (stereo not drawn) [Example 17, N-{1-[(2-chloro-4-fluorophenyl)methyl]-1H-pyrazol-3-yl}-5-[1-(3,5-dimethyl-1H-pyrazol-1-yl)ethyl]-1,3,4-thiadiazol-2-amine] | > 10 | 116 to 232 |  |
| Cc1cc(C)n(C(C)c2nnc(Nc3ccn(Cc4c(F)ccc(C)c4F)n3)s2)n1 (stereo not drawn) [Example 81, N-{1-[(2,6-difluoro-3-methylphenyl)methyl]-1H-pyrazol-3-yl}-5-[1-(3,5-dimethyl-1H-pyrazol-1-yl)ethyl]-1,3,4-thiadiazol-2-amine] | ≤ 1 | < 116 |  |
| Cc1ccn([C@@H](C)c2nnc(Nc3ccn(Cc4c(F)cccc4Cl)n3)s2)n1 (single isomer, unassigned) [Example 67] | 1 to 4 (≈ 0.418 to 1.67 µg/mL) |  | < 120 |
| Cc1cc(C)n(C(C)c2nnc(Nc3ccn(Cc4ccc(C(F)(F)F)cc4)n3)s2)n1 (stereo not drawn) [Example 35, 5-[1-(3,5-dimethyl-1H-pyrazol-1-yl)ethyl]-N-(1-{[4-(trifluoromethyl)phenyl]methyl}-1H-pyrazol-3-yl)-1,3,4-thiadiazol-2-amine] | > 10 | 223 to 1120 |  |
| Cc1cc(C)n(C(C)c2nnc(Nc3ccn(Cc4ccc(F)cc4)n3)s2)n1 (stereo not drawn) [Example 75, 5-[1-(3,5-dimethyl-1H-pyrazol-1-yl)ethyl]-N-{1-[(4-fluorophenyl)methyl]-1H-pyrazol-3-yl}-1,3,4-thiadiazol-2-amine] | > 10 | 126 to 252 |  |
| Cc1cc(C(F)F)nn1C(C)c1nnc(Nc2ccn(Cc3ccccc3)n2)s1 (stereo not drawn) [Example 43, 5-{1-[3-(difluoromethyl)-5-methyl-1H-pyrazol-1-yl]ethyl}-N-[1-(phenylmethyl)-1H-pyrazol-3-yl]-1,3,4-thiadiazol-2-amine] | 4 to 10 (≈ 1.66 to 4.15 µg/mL) |  | < 120 |
| CCOC(=O)Nc1cccc(Cn2ccc(Nc3nnc(C(C)(O)c4nc(C)cs4)s3)n2)c1F (stereo not drawn) [Intermediate 121, Ethyl (2-fluoro-3-{[3-({5-[1-hydroxy-1-(4-methyl-1,3-thiazol-2-yl)ethyl]-1,3,4-thiadiazol-2-yl}amino)-1H-pyrazol-1-yl]methyl}phenyl)carbamate] | 1 to 4 (≈ 0.504 to 2.01 µg/mL) | < 99.3 |  |
| O=[N+]([O-])c1ccn(Cc2nnc(Nc3ccn(Cc4ccccc4Cl)n3)s2)n1 [Example 49, N-{1-[(2-chlorophenyl)methyl]-1H-pyrazol-3-yl}-5-[(3-nitro-1H-pyrazol-1-yl)methyl]-1,3,4-thiadiazol-2-amine] | > 10 |  | < 120 |
| Cc1ccn(C(C)c2nnc(Nc3ccn(Cc4c(F)cccc4F)n3)s2)n1 (stereo not drawn) [Example 76, N-{1-[(2,6-difluorophenyl)methyl]-1H-pyrazol-3-yl}-5-[1-(3-methyl-1H-pyrazol-1-yl)ethyl]-1,3,4-thiadiazol-2-amine] | ≤ 1 | < 125 |  |
| Cc1cc(C)n(C(C)c2nnc(Nc3ccn(Cc4c(F)cccc4F)n3)s2)n1 (stereo not drawn) [Example 12, N-{1-[(2,6-difluorophenyl)methyl]-1H-pyrazol-3-yl}-5-[1-(3,5-dimethyl-1H-pyrazol-1-yl)ethyl]-1,3,4-thiadiazol-2-amine] | ≤ 1 |  | < 120 |

Source: patent publication US8524750B2, “(Pyrazol-3-yl)-1,3,4-thiadiazol-2-amine and (pyrazol-3-yl)-1,3,4-thiazol-2-amine compounds” (Glaxo Group Limited, priority 2009, dated 2013)
